Holding throughout (assay type): functional
The test system of one experiment is A549. Put plainly: Cytotoxicity against human A549 cells at 10 uM after 48 hrs by SRB assay. Particulars: A549, 48 h. In general terms: The SRB assay estimates cell density from bound dye.
The nature of experiment [1]: Cytotoxicity against human MIAPaCa2 cells at 10 uM after 48 hrs by SRB assay. Particulars: MIA PaCa-2, 48 h.
A further experiment relates to DU-145. Put plainly: Cytotoxicity against human DU145 cells at 10 uM after 48 hrs by SRB assay. Particulars: DU-145, 48 h.
Another experiment relates to SK-OV-3. Put plainly: Cytotoxicity against human SKOV3 cells at 10 uM after 48 hrs by SRB assay. Particulars: SK-OV-3, 48 h.
Experiment [2] is described as follows: Cytotoxicity against human DLD1 cells at 10 uM after 48 hrs by SRB assay. Particulars: DLD-1, 48 h.
The nature of experiment [3]: Cytotoxicity against human PLC/PRF/5 cells at 10 uM after 48 hrs by SRB assay. Particulars: PLC-PRF-5, 48 h.
The next experiment has as its system MCF7. Put plainly: Cytotoxicity against human MCF7 cells at 10 uM after 48 hrs by SRB assay. Particulars: MCF7, 48 h.
A short description of experiment [4]: Cytotoxicity against human A172 cells at 10 uM after 48 hrs by SRB assay. Particulars: A 172, 48 h.

With `O=C(/C=C/c1nccc2c1[nH]c1ccccc12)c1ccc(F)cc1`, the inhibition – broadly, the change of the read-out against control, counted positive when it falls – at 10 µM in the experiment with A549 was 6.73%; in experiment [1], -4.04%; with DU-145, -5.2%; in the experiment with SK-OV-3, 8.15%; in experiment [2], 25.6%; in experiment [3], 49.9%. Besides, the results for the inhibition at 10 µM (in the experiment on MCF7; in experiment [4]) were 9.92% and 16.2%, respectively.

As for `COc1cc(C(=O)/C=C/c2nccc3c4ccccc4n(C)c23)cc(OC)c1OC`, the inhibition at 10 µM amounted to 33.8% with A549; 19% in experiment [1]; 59.5% with DU-145; 37.4% in the experiment with SK-OV-3; 49.5% in experiment [2]; 40.1% in experiment [3]. Also, the values for the inhibition at 10 µM (in the experiment on MCF7; in experiment [4]) were 28.8% and 38.8%, respectively.

Turning to `CCn1c2ccccc2c2ccnc(/C=C/C(=O)c3ccccc3)c21`, the inhibition at 10 µM in the experiment on A549 is 12.5%; in experiment [1], 25%; in the experiment on DU-145, 54.2%; in the experiment with SK-OV-3, 33.5%; in experiment [2], 77.6%; in experiment [3] it was 75.1%. The results for the inhibition at 10 µM (in the experiment on MCF7; in experiment [4]) were 39.3% and 80.5%, respectively.

Consider `COc1ccc(C(=O)/C=C/c2nccc3c2[nH]c2ccccc23)cc1`, for which the inhibition at 10 µM with A549 is 29.2%; in experiment [1], 33.7%; with DU-145, 61.9%; with SK-OV-3, 33.9%; in experiment [2], 74.2%; in experiment [3] it was 70.8%. Moreover, the inhibition at 10 µM with MCF7 amounted to 37.2%; in experiment [4] it was 77.2%.

In the case of `Cc1ccc(C(=O)/C=C/c2nccc3c4ccccc4n(C)c23)cc1`, the inhibition at 10 µM with A549 was 13.2%; in experiment [1], 13.7%; in the experiment with DU-145, 45.7%; in the experiment on SK-OV-3, 46.2%; in experiment [2], 35.8%; in experiment [3], 32.2%. Further, the inhibition at 10 µM in the experiment with MCF7 came to 20.8%; in experiment [4], 19.2%.

In the case of `Cc1ccc(C(=O)/C=C/c2nccc3c2[nH]c2ccccc23)cc1`, the inhibition at 10 µM in the experiment on A549 is 9.91%; in experiment [1] it was 2.1%; with DU-145, 11.4%; in the experiment with SK-OV-3, 5.1%; in experiment [2], 42.4%; in experiment [3], 70.5%. Further, the figures for the inhibition at 10 µM (with MCF7; in experiment [4]) were 20.9% and 60.5%, respectively.

On to `O=C(/C=C/c1nccc2c1[nH]c1ccccc12)c1ccc(Br)cc1`, for which the inhibition at 10 µM in the experiment with A549 is 9.19%; in experiment [1], -4.72%; with DU-145, -0.24%; in the experiment on SK-OV-3 it was -2.43%; in experiment [2], 14.9%; in experiment [3] it was 26.4%. Moreover, the inhibition at 10 µM was found to be 7.15% with MCF7 and 5.41% in experiment [4].

`CCn1c2ccccc2c2ccnc(/C=C/C(=O)c3ccc(OC)c(OC)c3)c21`: the inhibition at 10 µM with A549 is 35.6%; in experiment [1], 15.3%; in the experiment with DU-145 it was 56.8%; in the experiment on SK-OV-3, 57.6%; in experiment [2], 66%; in experiment [3], 56.2%. Further, the inhibition at 10 µM turned out to be 29.6% in the experiment with MCF7 and 70.1% in experiment [4].

In the case of `CCn1c2ccccc2c2ccnc(/C=C/C(=O)c3ccc(OC)cc3)c21`, the inhibition at 10 µM in the experiment with A549 was 21.2%; in experiment [1], 9.18%; in the experiment on DU-145, 52.5%; with SK-OV-3 it was 43.7%; in experiment [2], 55.5%; in experiment [3], 61.6%. Moreover, the inhibition at 10 µM in the experiment on MCF7 stood at 27.2%; in experiment [4], 39.2%.

For the origin of these results see ChEMBL document CHEMBL3286126, “Synthesis of novel β-carboline based chalcones with high cytotoxic activity against breast cancer cells” (Bioorg Med Chem Lett, 2014).
